Test results reported in patent US20180148418A1, “AMIDO-SUBSTITUTED CYCLOHEXANE DERIVATIVES” (Bayer Pharma Aktiengesellschaft, priority 2015, published 2018).

Assays:
[1] = system: HEK293 cells cotransfected with the FOP control vector; experiment: HEK293 FOP assay (control reporter with non-functional TCF elements); format: cell-based; settings: Homo sapiens, 16 hours
In short: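 Stable HEK293 line carrying FOP control reporter (randomized non-functional TCF sites, with pcDNA3), Geneticin-selected, plated 24 h before assay. Stimulated with recombinant human Wnt-3a (2500-5 ng/ml) and compounds 50 μM–15 nM (3.16-fold steps) in CAFTY buffer pH 7.4 with 2 mM Ca2+, 0.01% BSA, run parallel to TOP line.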

TNKS1 = biological target: T1, TNKS1 (Homo sapiens, UniProt O95271); experiment: TNKS1 Assay B (auto-parsylation, [3H]-NAD+ SPA); format: biochemical; settings: 6 nM TNKS1, auto-parsylation, over night at room temperature
T1 construct: purchased BPS Bioscience, San Diego, USA 80579 (TNKS1 Histone Ribosylation Assay Kit)
T1 sequence (O95271 1-1327): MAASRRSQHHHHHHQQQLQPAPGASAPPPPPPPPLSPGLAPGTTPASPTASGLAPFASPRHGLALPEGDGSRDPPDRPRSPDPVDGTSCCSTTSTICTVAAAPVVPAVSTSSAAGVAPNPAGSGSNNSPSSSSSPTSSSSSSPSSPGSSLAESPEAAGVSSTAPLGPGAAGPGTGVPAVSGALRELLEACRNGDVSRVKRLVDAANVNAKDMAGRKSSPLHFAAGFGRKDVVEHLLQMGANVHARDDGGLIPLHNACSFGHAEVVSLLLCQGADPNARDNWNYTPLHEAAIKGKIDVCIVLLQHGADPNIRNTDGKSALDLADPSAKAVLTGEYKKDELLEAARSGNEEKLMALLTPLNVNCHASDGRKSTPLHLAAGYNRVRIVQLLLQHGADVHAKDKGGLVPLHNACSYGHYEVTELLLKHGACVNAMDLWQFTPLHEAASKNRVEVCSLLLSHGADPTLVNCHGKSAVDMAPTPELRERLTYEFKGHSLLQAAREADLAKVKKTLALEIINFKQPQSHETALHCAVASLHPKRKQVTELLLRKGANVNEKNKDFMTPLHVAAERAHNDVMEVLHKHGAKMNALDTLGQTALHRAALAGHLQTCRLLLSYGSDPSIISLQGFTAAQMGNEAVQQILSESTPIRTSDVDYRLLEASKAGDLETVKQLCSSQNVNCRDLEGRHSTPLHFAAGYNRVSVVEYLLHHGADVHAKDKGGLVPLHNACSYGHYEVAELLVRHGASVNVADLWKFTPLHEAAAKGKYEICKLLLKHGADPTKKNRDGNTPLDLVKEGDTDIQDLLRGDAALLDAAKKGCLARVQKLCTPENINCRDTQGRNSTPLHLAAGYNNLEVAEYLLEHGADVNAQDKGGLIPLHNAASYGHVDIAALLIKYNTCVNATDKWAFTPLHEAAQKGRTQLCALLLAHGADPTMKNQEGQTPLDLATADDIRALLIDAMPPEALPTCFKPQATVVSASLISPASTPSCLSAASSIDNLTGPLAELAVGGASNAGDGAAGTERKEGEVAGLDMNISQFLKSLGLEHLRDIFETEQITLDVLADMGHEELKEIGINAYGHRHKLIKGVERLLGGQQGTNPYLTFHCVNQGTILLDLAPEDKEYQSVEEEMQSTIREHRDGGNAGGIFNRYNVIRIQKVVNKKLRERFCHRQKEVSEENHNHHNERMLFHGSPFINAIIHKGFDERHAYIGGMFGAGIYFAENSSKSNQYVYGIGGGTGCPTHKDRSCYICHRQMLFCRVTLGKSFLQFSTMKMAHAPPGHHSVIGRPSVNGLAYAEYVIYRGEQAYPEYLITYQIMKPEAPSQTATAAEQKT

IC50 (TNKS1) [µM] | SMILES | IC50 [1] [µM]
0.0064 | Cc1cc(N2CC[C@]3(CC[C@@H](NC(=O)c4cnc5cccnn45)CC3)C2=O)c(Cl)cc1F [Example 265, N-[(trans)-2-(2-chloro-4-fluoro-5-methylphenyl)-1-oxo-2-azaspiro[4.5]dec-8-yl]imidazo[1,2-b]pyridazine-3-carboxamide] | ≥ 50
0.02 | Cc1cc(C)n2ncc(C(=O)N[C@H]3CC[C@@]4(CCN(c5cc(C)c(F)cc5Cl)C4=O)CC3)c2n1 [Example 266, N-[(trans)-2-(2-chloro-4-fluoro-5-methylphenyl)-1-oxo-2-azaspiro[4.5]dec-8-yl]-5,7-dimethylpyrazolo[1,5-a]pyrimidine-3-carboxamide] | ≥ 50
0.0099 | Cc1cc(N2CC[C@]3(CC[C@@H](NC(=O)c4cnn5cccnc45)CC3)C2=O)c(Cl)cc1F [Example 267, N-[(trans)-2-(2-chloro-4-fluoro-5-methylphenyl)-1-oxo-2-azaspiro[4.5]dec-8-yl]pyrazolo[1,5-a]pyrimidine-3-carboxamide] | ≥ 50
0.54 | O=C(N[C@H]1CC[C@@]2(CCN(c3cccc(Cl)c3)C2=O)CC1)c1cnn2cccnc12 [Example 268, N-[(trans)-2-(3-chlorophenyl)-1-oxo-2-azaspiro[4.5]dec-8-yl]pyrazolo[1,5-a]pyrimidine-3-carboxamide] | ≥ 50
0.8 | O=C(N[C@H]1CC[C@@]2(CCN(c3cccc(Cl)c3)C2=O)CC1)c1cnc2cccnn12 [Example 269, N-[(trans)-2-(3-chlorophenyl)-1-oxo-2-azaspiro[4.5]dec-8-yl]imidazo[1,2-b]pyridazine-3-carboxamide] | ≥ 50
0.16 | Cc1cc(C)n2ncc(C(=O)N[C@H]3CC[C@@]4(CCN(c5cccc(Cl)c5)C4=O)CC3)c2n1 [Example 270, N-[(trans)-2-(3-chlorophenyl)-1-oxo-2-azaspiro[4.5]dec-8-yl]-5,7-dimethylpyrazolo[1,5-a]pyrimidine-3-carboxamide] | ≥ 50
0.015 | O=C(N[C@H]1CC[C@@]2(CCN(c3ccccc3Cl)C2=O)CC1)c1cnc2cccnn12 [Example 271, N-[(trans)-2-(2-chlorophenyl)-1-oxo-2-azaspiro[4.5]dec-8-yl]imidazo[1,2-b]pyridazine-3-carboxamide] | ≥ 50
0.18 | CNC(=O)c1nc[nH]c1C(=O)N[C@H]1CC[C@@]2(CCN(c3cccc(Cl)c3)C2=O)CC1 [Example 276, N^5-[(trans)-2-(3-chlorophenyl)-1-oxo-2-azaspiro[4.5]dec-8-yl]-N^4-methyl-1H-imidazole-4,5-dicarboxamide] | 32
0.26 | CCNC(=O)c1nc[nH]c1C(=O)N[C@H]1CC[C@@]2(CCN(c3cccc(Cl)c3)C2=O)CC1 [Example 277, N^5-[(trans)-2-(3-chlorophenyl)-1-oxo-2-azaspiro[4.5]dec-8-yl]-N^4-ethyl-1H-imidazole-4,5-dicarboxamide] | 31
0.45 | CC(C)NC(=O)c1nc[nH]c1C(=O)N[C@H]1CC[C@@]2(CCN(c3cccc(Cl)c3)C2=O)CC1 [Example 278, N^5-[(trans)-2-(3-chlorophenyl)-1-oxo-2-azaspiro[4.5]dec-8-yl]-N^4-(propan-2-yl)-1H-imidazole-4,5-dicarboxamide] | ≥ 50
0.29 | O=C(NC1CC1)c1nc[nH]c1C(=O)N[C@H]1CC[C@@]2(CCN(c3cccc(Cl)c3)C2=O)CC1 [Example 279, N^5-[(trans)-2-(3-chlorophenyl)-1-oxo-2-azaspiro[4.5]dec-8-yl]-N^4-cyclopropyl-1H-imidazole-4,5-dicarboxamide] | ≥ 50
0.22 | O=C(N[C@H]1CC[C@@]2(CCN(c3cccc(Cl)c3)C2=O)CC1)c1[nH]cnc1C(=O)N1CC(F)C1 [Example 280, N-[(trans)-2-(3-chlorophenyl)-1-oxo-2-azaspiro[4.5]dec-8-yl]-4-[(3-fluoroazetidin-1-yl)carbonyl]-1H-imidazole-5-carboxamide] | ≥ 50
0.33 | O=C(NCC(F)(F)F)c1nc[nH]c1C(=O)N[C@H]1CC[C@@]2(CCN(c3cccc(Cl)c3)C2=O)CC1 [Example 281, N^5-[(trans)-2-(3-chlorophenyl)-1-oxo-2-azaspiro[4.5]dec-8-yl]-N^4-(2,2,2-trifluoroethyl)-1H-imidazole-4,5-dicarboxamide] | ≥ 50
0.31 | COCCNC(=O)c1nc[nH]c1C(=O)N[C@H]1CC[C@@]2(CCN(c3cccc(Cl)c3)C2=O)CC1 [Example 282, N^5-[(trans)-2-(3-chlorophenyl)-1-oxo-2-azaspiro[4.5]dec-8-yl]-N^4-(2-methoxyethyl)-1H-imidazole-4,5-dicarboxamide] | 8
